# Measured values taken from patent US9029362B2, “Iminothiadiazine dioxide compounds as brace inhibitors, compositions, and their use” (Merck Sharp & Dohme Corp., priority 2009, dated 2015).
# Read-outs that look alike come from different tables or passages of the source.
# How the values were obtained:
# [1] = Solution stability, Example B (pH 7.4 phosphate buffer/acetonitrile, 25° C., LC/MS); format: physicochemical; conditions: pH 7.4 buffer at 25° C., after 6 days
# Description: Stock solutions of the tested compounds were prepared by dissolving about 3 mg of each compound in 3 mL of acetonitrile. Standards for test compounds were prepared by diluting 1 mL of the stock solution with an additional 4 mL of acetonitrile. These standards were stored at 4° C. Samples were prepared by diluting 1 mL of the stock solution with 4 mL of 50 mM pH 7.4 phosphate buffer. These samples were stored at 25° C. in the absence of light. Standards and samples were analyzed by LC/MS initially and at day 1, day 4, and day 6.
# HPLC Conditions: • Mobile phase A: 10 mM pH 5 ammonium acetate buffer: methanol (90:10) • Mobile phase B: 10 mM pH 5 ammonium acetate buffer: methanol (10:90)
# Column: Zorbax SB-Phenyl 4.6×50 mm, 1.8 μm • Column temperature: 40° C. • Flow: 0.8 mL/min. • Gradient:
# • Detectors: UV at 220 nm and 236 nm
# MS, ES ionization, positive mode, for identification only at final time point.
# The terms reported in the tables below have the following meanings:
# Area % is the integration of peak from HPLC as reported by Waters Empower II software.
# RRT is the relative retention time of new product compared to the standard of the test compound.
# In the following study, the solution stability of the compound of Example 47 was measured and compared to that of Compound Y. The compound of Example 47 is an iminothiadiazine dioxide compound of the invention. […]
# [2] = Solution stability, Example A (pH 7.4 phosphate buffer/MeOH, LC/MS); format: physicochemical
# Description: A 1.05 mg/mL stock solution (5 mL) of Ex. 45 in MeOH was prepared. From the stock solution was taken out 1.25 mL and diluted to 25 mL with the addition of 23.75 mL of 10 mM phosphate buffer (pH 7.4)/MeOH (70/30 v/v). This new solution was split into three. One solution was incubated at 4° C., another incubated at 25° C. and the third incubated at 40° C. Each solution was analyzed by LC/MS after day 1, day 2 and day 6 and compared to a standard calibration curve for Ex. 45.
# In the following study, the solution stability of the compound of Example 45 was measured and compared to that of Compound Z. The compound of Example 45 is an iminothiadiazine dioxide compound of the invention. Compound Z is the corresponding iminopyrimidinone compound. The structures of the compound of Example 45 and of Compound Z are shown below. Studies were performed in aqueous pH 7.4 buffer containing methanol at 4° C., 25° C. and 40° C.
# [3] = target: soluble human BACE1 catalytic domain (Homo sapiens (Human), UniProt P56817); assay: BACE1 HTRF FRET Assay; format: biochemical; conditions: about values; read-out: Ki value in BACE-1 assay
# Chain of soluble human BACE1 catalytic domain (P56817 75-416): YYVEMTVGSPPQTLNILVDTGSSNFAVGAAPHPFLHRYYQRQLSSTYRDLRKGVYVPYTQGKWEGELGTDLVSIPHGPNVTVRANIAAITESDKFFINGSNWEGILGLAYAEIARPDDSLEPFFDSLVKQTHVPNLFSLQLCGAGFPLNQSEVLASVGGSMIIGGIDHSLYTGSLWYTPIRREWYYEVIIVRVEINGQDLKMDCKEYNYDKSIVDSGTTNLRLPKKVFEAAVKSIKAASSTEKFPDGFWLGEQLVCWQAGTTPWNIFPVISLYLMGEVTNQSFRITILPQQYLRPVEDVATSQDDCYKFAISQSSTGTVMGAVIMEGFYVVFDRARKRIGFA
# [4] = system: rat cortex Aβ40; assay: Cortical Aβ40 in rats after oral dose (Luminex immunoassay); format: in vivo; conditions: 3 h after a 10 mg/kg oral dose, relative to vehicle cohort; for Change in rat cortex Aβ40 (Iminopyrimidinone): iminopyrimidinone analog
# Description: Male CD rats (˜100 g; Crl:CD(SD); Charles River Laboratories, Kingston, N.Y.) were group housed and acclimated to the vivarium for 5-7 days prior to use in a study. Compounds were formulated in 20% hydroxypropyl-β-cyclodextrin and administered orally with a dosing volume of 5 ml/kg for rats. Three h after drug administration, rats were euthanized with excess CO2. The brain was removed from the skull and immediately frozen on dry ice. All tissues were stored at −70° C. until Aβ quantification.
# Ab585 was labeled with biotin (b-Ab585) by first dialyzing the antibody sample extensively versus PBS (pH 7.8) to remove impurities, followed by dilution to between 1 and 2 mg/mL protein concentration. EZ-Link Sulfo-NHS-LC-Biotin (Pierce) was dissolved in PBS (pH 7.8) at a concentration of 1 mg/mL immediately prior to use. Ab585 was labeled with EZ-Link Sulfo-NHS-LC-biotin using a 10:1 biotin:antibody ratio by incubation at room temperature for 1 hour. The labeling reaction was quenched by addition of 1.0 M glycine to a final concentration of 0.1 M followed by 10 minute incubation at room temperature. Glycine was removed by extensive dialysis versus PBS.
# The antibody was coupled to the beads using the Bio-Plex Amine Coupling Kit (Bio-Rad) as per the manufacturer's recommendations.
# Rat brains were thawed briefly at 37° C. and both mid- and hindbrain regions were removed. The remaining material, consisting primarily of cortex (−800 mg) was carried through the guanidine extraction procedure. Cortices were added to a 2 ml BioPur tube (Eppendorf) along with a 6.35 mm chrome-coated steel ball and 1.0 ml of sucrose homogenization buffer (20 mM HEPES [pH 7.5], 50 mM KCl, 50 mM sucrose, 2 mM EDTA, 2 mM EGTA supplemented with complete protease inhibitors [Roche, EDTA-free]). Samples were then homogenized by agitation for 1.5 min at 30 cylces/sec in a MM300 tissue mixer (Retsch®). The resulting cortical homogenate was extracted with guanidine-HCl by mixing 67 μl of homogenate with 133 μl of 5 M Guanidine HCl, 50 mM Tris HCl (pH 8.0). To maximize the efficiency of Aβ extraction, samples were vortexed and then sonicated for 2 minutes in an ice bath using an Ultrasonics XL cup horn sonicator at a power setting of 8 (Heat Systems, Inc.). Insoluble material was removed by ultracentrifugation using a using a TLA-55 rotor in a TL-100 benchtop centrifuge (Beckman) at 100,000×g for 30 minutes. The resulting supernatant was then either diluted 1:10 in 5 M guanidine HCl, 0.05 M Tris HCl (pH 8.0) for protein analysis (BCA protein assay, Pierce Biochemicals) or assayed neat for Aβ340 levels. The Luminex rodent A1340 assay was performed as follows. First, 96 well filter binding plates (Millipore, catalogue #MSBVN12) were wetted with 100 μl of 1×LAβ40 buffer (0.05 M HEPES [pH 7.5], 0.2% BSA, 0.2% Tween-20, 0.15 M NaCl) by vacuum filtration on a Millipore 96-well manifold. […] Guanidine HCl was added to synthetic rodent Aβ40 standards in order to control for the effect of guanidine in brain extracts on the assay performance. Ten microliters of cortical extract, rodent Aβ40 standards or cortical extract from amyloid precursor protein knockout mice (to define background immunoreactivity) was added to each well. Plates were covered and incubated overnight at 4° C. Following the incubation, wells were cleared by vacuum and washed twice with 100 μl of 1×LAβ40 buffer on a Millipore manifold. Phycoerythrin-conjugated streptavidin (PE-strepavidin, BioRad) for detection of bound b-Ab585 was diluted 100-fold in 1×LA340 buffer and 50 μl was added to each well and incubated for 1 hour at room temperature with shaking.
# [5] = Caco-2 Bi-directional Permeability; format: in vitro ADME; conditions: human; for Papp A→B at 2 h: Caco-2, pH 7.4, apical to basolateral, 2-hr incubation, read-out: Caco-2 AP → BL (nm/s) (Iminothiadiazine Dioxide)
# Description: (§1) The bi-directional permeability with efflux potential of selected compounds of the invention vs. otherwise structurally identical iminopyrimidinones (collectively referred to as test compounds, shown in the table below) were assessed using Caco-2 cell line. The Caco-2 cells were maintained in DMEM (Dulbecco's Modified Eagle Medium) containing 10% fetal bovine serum, 1% non-essential amino acids, 2 mM L-glutamine, and 1% penicillin-streptomycin in an incubator at ˜37° C. in an atmosphere of 5% CO2 and about 90% relative humidity. The cell culture medium was changed three times weekly. Caco-2 cell monolayers were grown on polyethylene terephthalate filters using 24-well BD Falcon™ Cell Culture Insert Plates (0.33 cm^2 insert area, 1 μm pore size; BD BioSciences, Bedford, Mass.). The culture medium of the plate was changed every other day until used for the transport experiment (21-28 days post seeding).
# (§2) The transport buffer (TM) was Hank's balanced salt solution (HBSS) with 10 mM HEPES and 25 mM glucose (pH 7.4) for dosing and TM with 4% bovine serum albumin for receiver (pH 7.4). The bi-directional permeability of the test compounds were tested at concentrations of 1, 10 and 100 μM was measured in triplicate with 2-hr incubation. The cell monolayer integrity was monitored with pre- and post-experimental trans-epithelial electrical resistance and post-experimental Lucifer Yellow (LY) permeability with 1 hr incubation.
# (§3) The apparent permeability, recovery and efflux ratio values were calculated using the following equations:
# [6] = target: purified human autoBACE-2 (Homo sapiens (Human), UniProt Q9Y5Z0); assay: BACE-2 Assay (BACE-HTRF assay); format: biochemical
# Chain of purified human autoBACE-2 (Q9Y5Z0 63-518): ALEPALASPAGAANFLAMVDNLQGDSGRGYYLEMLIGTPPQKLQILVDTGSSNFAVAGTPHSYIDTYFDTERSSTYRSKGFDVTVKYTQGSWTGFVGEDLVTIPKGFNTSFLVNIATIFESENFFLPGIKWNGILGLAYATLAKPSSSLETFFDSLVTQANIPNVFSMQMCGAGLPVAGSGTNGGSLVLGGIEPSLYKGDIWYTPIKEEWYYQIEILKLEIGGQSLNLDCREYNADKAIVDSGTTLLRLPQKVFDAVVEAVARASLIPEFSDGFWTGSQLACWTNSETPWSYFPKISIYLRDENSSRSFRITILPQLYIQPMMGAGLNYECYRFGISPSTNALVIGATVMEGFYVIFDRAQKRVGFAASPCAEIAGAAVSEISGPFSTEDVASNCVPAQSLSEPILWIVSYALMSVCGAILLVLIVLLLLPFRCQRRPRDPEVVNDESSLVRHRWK
# Description: Inhibitor IC50s at purified human autoBACE-2 were determined in a time-resolved endpoint proteolysis assay that measures hydrolysis of the QSY7-[sequence]-Eu-amide FRET peptide substrate (BACE-HTRF assay). […] DMSO was present at 5% final concentration in the assay. Following laser excitation of sample wells at 320 nm, the fluorescence signal at 620 nm was collected for 400 ms following a 50 s delay on a RUBYstar HTRF plate reader (BMG Labtechnologies). Raw RFU data was normalized to maximum (1.0 nM BACE/DMSO) and minimum (no enzyme/DMSO)RFU values. […] The Ki values were calculated from the IC50 using the Cheng-Prusoff equation.
# [7] = system: Caco-2 cells; assay: Caco-2 Bi-directional Permeability; format: in vitro ADME; conditions: apical to basolateral, 2-hr incubation; for Caco-2 AP → BL (nm/s) (Iminopyrimidinone): iminopyrimidinone analog
# Description: as §1, §2, §3
smiles,measurement,setting,value
CN1C(=N)N[C@](C)(c2cc(-c3cccc(C#N)c3)cs2)CC1=O [Compound Z],hydrolysis product,[1],12.45%
same,"Assay (Area %), degradation flag","[2]; pH 7.4, 4° C., 2 days",— ((—) stands for >20% degradation)
same,"Assay (Area %), degradation flag","[2]; pH 7.4, 4° C., 6 days",— ((—) stands for >20% degradation)
same,"Assay (Area %), degradation flag","[2]; pH 7.4, 25° C., 2 days",— ((—) stands for >20% degradation)
same,"Assay (Area %), degradation flag","[2]; pH 7.4, 25° C., 6 days",— ((—) stands for >20% degradation)
same,"Assay (Area %), degradation flag","[2]; pH 7.4, 40° C., 2 days",— ((—) stands for >20% degradation)
same,"Assay (Area %), degradation flag","[2]; pH 7.4, 40° C., 6 days",— ((—) stands for >20% degradation)
CN1C(=N)N[C@](C)(c2cccs2)CS1(=O)=O [Example 19],Ki,[3],≥ 5000 nM
CN1C(=N)N[C@](C)(c2cc(NC(=O)c3ccc(F)cn3)ccc2F)CS1(=O)=O [Example 25],Change in rat cortex Aβ40 (Iminothiadiazine Dioxide),[4],−49%
same,Papp A→B at 2 h,[5],12.8 ×10⁻⁶ cm/s
CN1C(=N)N[C@](C)(c2cc(NC(=O)c3ccc(C(F)(F)F)cn3)ccc2F)CS1(=O)=O [Example 26],Change in rat cortex Aβ40 (Iminothiadiazine Dioxide),[4],−33%
same,Papp A→B at 2 h,[5],8.9 ×10⁻⁶ cm/s
CN1C(=N)N[C@](C)(c2cc(NC(=O)c3ccc(Cl)cn3)ccc2F)CS1(=O)=O [Example 34],Change in rat cortex Aβ40 (Iminothiadiazine Dioxide),[4],−51%
same,Papp A→B at 2 h,[5],11.8 ×10⁻⁶ cm/s
Cc1ccc(C(=O)Nc2ccc(F)c([C@]3(C)CS(=O)(=O)N(C)C(=N)N3)c2)nc1 [Example 35],Papp A→B at 2 h,[5],15.1 ×10⁻⁶ cm/s
Cc1cnc(C(=O)Nc2ccc(F)c([C@]3(C)CS(=O)(=O)N(C)C(=N)N3)c2)cn1 [Example 36],Change in rat cortex Aβ40 (Iminothiadiazine Dioxide),[4],−25%
same,Papp A→B at 2 h,[5],5.4 ×10⁻⁶ cm/s
COc1cnc(C(=O)Nc2ccc(F)c([C@]3(C)CS(=O)(=O)N(C)C(=N)N3)c2)cn1 [Example 40ai],Change in rat cortex Aβ40 (Iminothiadiazine Dioxide),[4],−51%
same,Papp A→B at 2 h,[5],13.3 ×10⁻⁶ cm/s
COc1cnc(C(=O)Nc2cc(F)c(F)c([C@]3(C)CS(=O)(=O)N(C)C(=N)N3)c2)cn1 [Example 40di],Change in rat cortex Aβ40 (Iminothiadiazine Dioxide),[4],−38%
same,Papp A→B at 2 h,[5],13.6 ×10⁻⁶ cm/s
CN1C(=N)N[C@](C)(c2cc(NC(=O)c3ccc(S(C)(=O)=O)cn3)cc(F)c2F)CS1(=O)=O [Example 40do],Ki,[6]; about values,≥ 500 nM
CN1C(=N)N[C@](C)(c2cc(NC(=O)c3c(F)cncc3C(F)(F)F)cc(F)c2F)CS1(=O)=O [Example 40ex],Ki,[6]; about values,≥ 500 nM
Cc1cnc(C(=O)Nc2cc([C@]3(C)CS(=O)(=O)N(C)C(=N)N3)ccn2)cn1 [Example 40x],Ki,[3],≥ 5000 nM
CN1C(=N)N[C@](C)(c2cc(-c3cccc(C#N)c3)cs2)CS1(=O)=O [Example 45],Papp A→B at 2 h,[5],22.6 ×10⁻⁶ cm/s
CN1C(=N)N[C@](C)(c2cc(-c3ccc(F)c(C#N)c3)cs2)CS1(=O)=O [Example 46],Papp A→B at 2 h,[5],18.9 ×10⁻⁶ cm/s
CC#Cc1cncc(-c2cc(Cl)c([C@]3(C)CS(=O)(=O)N(C)C(=N)N3)s2)c1 [Example 52],Papp A→B at 2 h,[5],27.8 ×10⁻⁶ cm/s
CC[C@H]1[C@@](C)(c2cc(F)ccc2F)NC(=N)N(C)S1(=O)=O [Example 98],Ki,[3],≥ 5000 nM
CC1[C@@](C)(c2cccc(-c3cccc(C#N)c3)c2)NC(=N)N(C)S1(=O)=O (stereo partly shown) [Example 101],Ki,[3],≥ 5000 nM
CN1C(=N)NC(C)(c2cc(NC(=O)N3CCCCC3)ccc2F)CS1(=O)=O (stereo not shown) [Example 160],Ki,[6],≥ 500 nM
CN1C(=N)N[C@](C)(c2cc(NC(=O)N3CCOCC3)ccc2F)CS1(=O)=O [Example 161a],Ki,[6]; about values,≥ 500 nM
CN1C(=N)N[C@](C)(c2cccc(Nc3ncccc3C#N)n2)CS1(=O)=O [Example 164],Ki,[6]; about values,≥ 500 nM
CN1C(=N)N[C@](C)(c2c(F)ccc(NC(=O)c3ccc(F)cn3)c2F)CS1(=O)=O [Example 173],Change in rat cortex Aβ40 (Iminothiadiazine Dioxide),[4],−27%
same,Caco-2 AP → BL (nm/s) (Iminothiadiazine Dioxide),[7],126 nm/s
CCc1cc2cc(F)c([C@]3(C)CS(=O)(=O)N(C)C(=N)N3)cc2[nH]1 [Example 189],Ki,[3],≥ 5000 nM
"CN1C(=N)N[C@](C)(c2cc(NC(=O)c3ccc(Cl)cn3)ccc2F)CC1=O [drawing 705, reference compound]",Change in rat cortex Aβ40 (Iminopyrimidinone),[4],−19%
"CN1C(=N)N[C@](C)(c2cc(NC(=O)c3ccc(C(F)(F)F)cn3)ccc2F)CC1=O [drawing 707, reference compound]",Change in rat cortex Aβ40 (Iminopyrimidinone),[4],0%
"CN1C(=N)N[C@](C)(c2cc(NC(=O)c3ccc(F)cn3)ccc2F)CC1=O [drawing 709, reference compound]",Change in rat cortex Aβ40 (Iminopyrimidinone),[4],−11%
"COc1cnc(C(=O)Nc2cc(F)c(F)c([C@]3(C)CC(=O)N(C)C(=N)N3)c2)cn1 [drawing 713, reference compound]",Change in rat cortex Aβ40 (Iminopyrimidinone),[4],+5%
"CN1C(=N)N[C@](C)(c2cc(NC(=O)c3ccc(F)cn3)ccc2F)CC1=O [drawing 717, reference compound]",Change in rat cortex Aβ40 (Iminopyrimidinone),[4],−3%
"CN1C(=N)N[C@](C)(c2cc(-c3cccc(C#N)c3)cs2)CC1=O [drawing 719, reference compound]",Change in rat cortex Aβ40 (Iminopyrimidinone),[4],−5%
"CN1C(=N)N[C@](C)(c2cc(NC(=O)c3ccc(Cl)cn3)ccc2F)CC1=O [drawing 727, reference compound]",Caco-2 AP → BL (nm/s) (Iminopyrimidinone),[7],0 nm/s
"CN1C(=N)N[C@](C)(c2cc(NC(=O)c3ccc(C(F)(F)F)cn3)ccc2F)CC1=O [drawing 729, reference compound]",Caco-2 AP → BL (nm/s) (Iminopyrimidinone),[7],17 nm/s
"CN1C(=N)N[C@](C)(c2cc(NC(=O)c3ccc(F)cn3)ccc2F)CC1=O [drawing 731, reference compound]",Caco-2 AP → BL (nm/s) (Iminopyrimidinone),[7],22 nm/s
"COc1cnc(C(=O)Nc2cc(F)c(F)c([C@]3(C)CC(=O)N(C)C(=N)N3)c2)cn1 [drawing 735, reference compound]",Caco-2 AP → BL (nm/s) (Iminopyrimidinone),[7],65 nm/s
"CN1C(=N)N[C@](C)(c2cc(NC(=O)c3ccc(F)cn3)ccc2F)CC1=O [drawing 739, reference compound]",efflux ratio at 2 h,"[5]; Caco-2, Papp BL to AP / Papp AP to BL, iminopyrimidinone analog",6.1
same,Caco-2 AP → BL (nm/s) (Iminopyrimidinone),[7],25 nm/s
"CN1C(=N)N[C@](C)(c2cc(-c3cccc(C#N)c3)cs2)CC1=O [drawing 741, reference compound]",Caco-2 AP → BL (nm/s) (Iminopyrimidinone),[7],174 nm/s
"CC#Cc1cncc(-c2cc(Cl)c([C@]3(C)CC(=O)N(C)C(=N)N3)s2)c1 [drawing 745, reference compound]",Caco-2 AP → BL (nm/s) (Iminopyrimidinone),[7],153 nm/s
Cc1cnc(C(=O)Nc2ccc(F)c([C@]3(C)CC(=O)N(C)C(=N)N3)c2)cn1 [reference compound],Caco-2 AP → BL (nm/s) (Iminopyrimidinone),[7],11 nm/s
Cc1ccc(C(=O)Nc2ccc(F)c([C@]3(C)CC(=O)N(C)C(=N)N3)c2)nc1 [reference compound],Caco-2 AP → BL (nm/s) (Iminopyrimidinone),[7],0 nm/s
CN1C(=N)N[C@](C)(c2cc(-c3ccc(F)c(C#N)c3)cs2)CC1=O [reference compound],Caco-2 AP → BL (nm/s) (Iminopyrimidinone),[7],136 nm/s
